Experimental data from PubChem BioAssay (NCI).
Several values for one entry are separate records, joined by “and”; a condition that tells them apart may be missing. Identical values can stand only once.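 Briefly, cells in 96-well plates were exposed to five compound concentrations for 48 h, and endpoints were estimated by linear interpolation. GI50 is the concentration that inhibits growth by half. Definition used: TGI = concentration required for complete inhibition of growth.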

How the values were obtained:
Test in all cases: growth of human tumour cells (NCI), 48 h
[1] = test system: EKVX NSCLC
[2] = test system: MDA-MB-435
[3] = test system: NCI-H460 lung
[4] = test system: NCI-H522 lung
[5] = test system: OVCAR-8 ovarian
[6] = test system: SF-268 CNS
[7] = test system: SF-295 CNS
[8] = test system: SF-539 CNS
[9] = test system: SNB-19 CNS
[10] = test system: U251 CNS

Structure (SMILES)	TGI [1] [µM]	TGI [2] [µM]	TGI [3] [µM]	TGI [4] [µM]	TGI [5] [µM]	TGI [6] [µM]	TGI [7]	TGI [8]	TGI [9] [µM]	TGI [10] [µM]	GI50 [1] [µM]	GI50 [2]	GI50 [3]	GI50 [4]	GI50 [5]	GI50 [6]	GI50 [7]	GI50 [8]	GI50 [9]	GI50 [10]
CC(=O)O[C@H]1CC[C@@]2(C)C(=CC[C@H]3[C@@H]4CC[C@H](c5cc(C(F)(F)F)n(C(C)=O)n5)[C@@]4(C)CC[C@@H]32)C1	21.3	21.4	12.6	> 38.5	24.8	> 48.1	17 µM	21.9 µM	24	16.5										
CCN(Cc1cccc(F)c1)c1ccc(CO)c(Cl)c1	> 76	55.1	18	58.6	> 60.9	> 82.8	> 45.3 µM	63.5 µM	> 92.6	26.5	22.3	18.2 µM	0.306 µM	19.2 µM	17.3 µM	29.9 µM	1.21 µM	23.8 µM	21.8 µM	1.01 µM
Cc1ccc(S(=O)(=O)NC(=O)C2C(=O)CC3(CCCCC3)CC2=O)cc1	61.9	> 100	74.9	59.9	87.1	> 100	67.1 µM	77.5 µM	> 100	> 100										
COc1ccc(S(=O)(=O)N2CC(C)(C)CN(S(=O)(=O)c3ccc(OC)cc3)C2C(=O)NO)cc1	> 20	> 20	> 20	> 20	> 20	> 20	> 20 µM	> 20 µM	> 20	> 20	12.3	> 20 µM	> 20 µM	> 20 µM	> 20 µM	> 20 µM	> 20 µM	> 20 µM	> 20 µM	> 20 µM
C#CCOc1cccc(-c2ncnc3cc(NC(=O)CCl)ccc23)c1	7.64	2.92	1.45	1.71	6.59	2.94	9.25 µM	2.77 µM	4.86	2.76	2.31	0.993 µM	0.038 µM	0.149 µM	0.168 µM	0.669 µM	2.44 µM	1.31 µM	1.14 µM	0.149 µM
COc1cc(C#Cc2ccc(=O)oc2C#Cc2ccccc2)cc(OC)c1OC	13.4	17.8	16.4	3.57	10.3	5.85	38.9 µM	11.3 µM	34.3	3.6	5.32	3.4 µM	3.94 µM	1.73 µM	2.93 µM	2.38 µM	18.3 µM	3.58 µM	8.91 µM	1.9 µM
Clc1nc(Cl)c2ncn(Cc3cccc(Cn4cnc5c(Cl)nc(Cl)nc54)c3)c2n1	11	22.2	13.6	7.01	18.6	31.5	30.9 µM	3.13 µM	13.7	13.9	3.09	7.29 µM	3.7 µM	2.9 µM	4.67 µM	13 µM	16.5 µM	1.39 µM	3.02 µM	3.91 µM
COC(=O)CCc1c[nH]c2ccc(N(CCCl)CCCl)cc12	> 77.7	25.9	12.9	6.02	> 60.5	30	> 58.8 µM	4.69 µM	> 76.2	25.1	21.8	8.98 µM	0.322 µM	1.79 µM	3.05 µM	1.25 µM	0.826 µM	0.486 µM	3.43 µM	1.31 µM
CN(C)CCCOc1ccc(-c2ccc3ncc4c(c3c2)n(C2CCOCC2)c(=O)n4C)cn1	12.2	11.3	15.5	12.4	17.2	29.5	7.81 µM	6.21 µM	18.7	18.9	0.975	1.65 µM	0.94 µM	0.985 µM	3.24 µM	2.04 µM	1.29 µM	1.52 µM	4.71 µM	4.52 µM
O=C(CP(=O)(O)O)NC(CC(=O)OCc1ccccc1)C(=O)OCc1ccccc1 (centres undefined)	> 100	> 100	> 100	> 100	> 100	> 100	> 100 µM	> 100 µM	> 100	> 100										
COc1cc(/C=C2\C(=O)Nc3cc(C)c(O)cc32)cc(OC)c1OC	39	3.7	11.7	12.1	> 67.3	36	26.3 µM	19.6 µM	34.3	16.1	4.08	1.52 µM	3.2 µM	2.59 µM	7.33 µM	5.34 µM	6.03 µM	5.41 µM	10.6 µM	3.54 µM
FC(F)c1nc2ccccc2n1-c1nc(N2CCOCC2)nc(N2CCOCC2)n1	4.88		> 100	2.69	> 100	> 100	1.63 µM and 1.78 µM	2.29 µM and 3.52 µM	> 100	> 100	0.445	0.397 µM and 0.429 µM	0.276 µM and 0.303 µM	0.222 µM and 0.295 µM	0.639 µM and 0.492 µM	0.361 µM and 0.6 µM	0.237 µM and 0.196 µM	0.382 µM and 0.457 µM	1.28 µM and 1.74 µM	0.735 µM and 0.559 µM
CCOC(=O)c1sc(-c2ccc(OS(=O)(=O)c3ccc(Br)s3)c(C=O)c2)nc1C	54.1	6.79	58.6	10.5	16.5	13.2	18.4 µM	6.16 µM	12	10.3	14.3	2.47 µM	22.7 µM	2.96 µM	3.26 µM	3.01 µM	5.08 µM	2.43 µM	3.17 µM	2.68 µM
